Source: article doi:10.1101/2021.03.02.433618v2 (biorxiv, 2021)
Where two headings read alike, the source gives them in different places.

What was measured:
3CLpro [1] = target: T1, 3CLpro (Severe acute respiratory syndrome coronavirus 2, UniProt P0DTD1); assay: biochemical
3CLpro [2] = target: T1, 3CLpro; assay: biochemical; remark: listed apart in the source

For `CC(=O)c1c(O)c(C)c(O)c(Cc2c(O)c3c(c(C(=O)/C=C/c4ccccc4)c2O)OC(C)(C)C=C3)c1O` [rottlerin], the IC50 (3CLpro [1]) was 37 µM.

Compound `O=c1cc(-c2ccc(O)c(O)c2)oc2cc(O)cc(O)c12` [luteolin] has an IC50 (3CLpro [2]) of 343 ± 77 µM.

`O=c1cc(-c2ccc(O)c(-c3c(O)cc(O)c4c(=O)cc(-c5ccc(O)cc5)oc34)c2)oc2cc(O)cc(O)c12` [amentoflavone] was tested, and the IC50 (3CLpro [2]) was 143 ± 23 µM.
